Reference: US9017956B2, “Use of the genes in the Hog, Ras and cAMP pathway for treatment of fungal infection” (Nutrex Technology Co., Ltd., priority 2009, dated 2015)
Entries after “also recorded” stand apart in the source; their conditions may differ.

Assays:
[1] = test system: C. neoformans serotype A H99 strain and its deletion mutants; assay: Antifungal drug sensitivity test: serially diluted cells spotted on YPD agar containing the drug; type: cell-based, Cryptococcus neoformans; details: for drug sensitivity of hog1Δ mutant compared to WT / drug sensitivity of pbs2Δ mutant compared to WT / drug sensitivity of skn7Δ mutant compared to WT / drug sensitivity of ssk1Δ mutant compared to WT / drug sensitivity of ssk2Δ mutant compared to WT / drug sensitivity of tco2Δ mutant compared to WT: YPD agar, 30° C., 72 h
Protocol: (§1) Each strain was incubated overnight at 30° C. in YPD medium, washed, serially diluted (1 to 10^4 dilutions) in dH2O, and spotted (3 μl) onto solid YPD medium containing indicated concentrations of stress-inducing agents or antifungal drugs as previously described in “Bahn Y S, Kojima K, Cox G M, Heitman J (2005) Mol Biol Cell 16: 2285-2300.” and “Bahn Y S, Kojima K, Cox G M, Heitman J (2006) Mol Biol Cell 17: 3122-3135”. To examine antifungal drug sensitivity, the cells were spotted on agar-solid YPD media containing amphotericin B (Sigma), fluconazole (Sigma), itraconazole (Sigma), ketoconazole (Sigma) and fludioxonil. Then spotted cells were incubated at 30° C. for 2-4 days and photographed.

[2] = test system: C. neoformans serotype D strains JEC21 and B3501 and their deletion mutants; assay: as above; type: cell-based, Cryptococcus neoformans
Protocol: as §1

Compound: OC(Cn1cncn1)(Cn1cncn1)c1ccc(F)cc1F [fluconazole]
- drug sensitivity of cac1Δ mutant compared to WT ([1]; H99 background): nearly as resistant
- drug sensitivity of gpa1Δ mutant compared to WT ([1]; H99 background): nearly as resistant
- drug sensitivity of hog1Δ cac1Δ double mutant ([1]; compared to single mutants): hypersensitivity; also recorded: hypersensitive
- drug sensitivity of hog1Δ mutant compared to WT ([1]; H99 background): hyper-resistance
- drug sensitivity of pbs2Δ mutant compared to WT ([1]; H99 background): hyper-resistance
- drug sensitivity of pka1Δ pka2Δ double mutant compared to WT ([1]; pka1Δ pka2Δ, H99 background): nearly as resistant
- drug sensitivity of pka1Δ mutant compared to WT ([1]; H99 background): nearly as resistant
- drug sensitivity of pka2Δ mutant compared to WT ([1]; pka2Δ, H99 background): nearly as resistant
- drug sensitivity of skn7Δ mutant compared to WT ([1]; H99 background): higher resistance
- drug sensitivity of ssk1Δ mutant compared to WT ([1]; H99 background): hyper-resistance
- drug sensitivity of ssk2Δ mutant compared to WT ([1]; H99 background): hyper-resistance
- drug sensitivity of tco2Δ mutant compared to WT ([1]; H99 background): higher resistance

Compound: C[C@@H]1[C@H](O)[C@@H](C)/C=C/C=C/C=C/C=C/C=C/C=C/C=C/[C@H](O[C@@H]2O[C@H](C)[C@@H](O)[C@H](N)[C@@H]2O)C[C@@H]2O[C@](O)(C[C@@H](O)C[C@@H](O)[C@H](O)CC[C@@H](O)C[C@@H](O)CC(=O)O[C@H]1C)C[C@H](O)[C@H]2C(=O)O [amphotericin B]
- drug resistance of B3501 strain compared to JEC21 ([2]; B3501 (Hog1 constitutively phosphorylated)): higher resistance
- drug sensitivity of JEC21 strain ([2]; JEC21 (Hog1 not constitutively phosphorylated), compared with ssk2Δ mutant in H99 background): hypersensitivity
- effect of HOG1 mutation on drug sensitivity in JEC21 background ([2]; hog1Δ in JEC21): did not affect sensitivity
- effect of PBS2 mutation on drug sensitivity in JEC21 background ([2]; pbs2Δ in JEC21): did not affect sensitivity
- effect of SSK2 mutation on drug sensitivity in B3501 background ([2]; ssk2Δ in B3501): increased the amphotericin B sensitivity
- effect of SSK2 mutation on drug sensitivity in JEC21 background ([2]; ssk2Δ in JEC21): did not affect sensitivity
- drug sensitivity of aca1Δ mutant compared to WT ([1]; aca1Δ, H99 background): slightly higher AmpB susceptibility
- drug sensitivity of cac1Δ mutant compared to WT ([1]; H99 background): hypersensitive
- drug sensitivity of cac1Δ mutant compared to WT ([1]; H99 background, listed as AmpB): much higher AmpB-sensitivity
- drug sensitivity of ena1Δ mutant ([1]; ena1Δ): did not show high sensitivity
- drug sensitivity of ena1Δ nha1Δ double mutant ([1]; ena1Δ nha1Δ): considerably increased sensitivity
- drug sensitivity of gpa1Δ mutant compared to WT ([1]; H99 background): hypersensitive
- drug sensitivity of gpa1Δ mutant compared to WT ([1]; H99 background, listed as AmpB): much higher AmpB-sensitivity
- drug sensitivity of hog1Δ cac1Δ double mutant ([1]; compared to single mutants): even more sensitive
- drug sensitivity of hog1Δ pka1Δ double mutant ([1]; hog1Δ pka1Δ, compared to single mutants): even more sensitive
- drug sensitivity of hog1Δ mutant compared to WT ([1]; H99 background): dramatic hypersensitivity
- drug sensitivity of hsp12Δ mutant compared to WT ([1]; hsp12Δ, H99 background): slightly higher susceptibility
- drug sensitivity of hsp122Δ mutant compared to WT ([1]; hsp122Δ, H99 background): slightly higher susceptibility
- drug sensitivity of nha1Δ mutant ([1]; nha1Δ): did not show high sensitivity
- drug sensitivity of pbs2Δ mutant compared to WT ([1]; H99 background): dramatic hypersensitivity
- drug sensitivity of pka1Δ mutant compared to WT ([1]; H99 background): hypersensitive
- drug sensitivity of pka1Δ mutant compared to WT ([1]; H99 background, listed as AmpB): increased susceptibility
- drug sensitivity of ras1Δ aca1Δ double mutant ([1]; compared to each single mutant): hypersensitive
- drug sensitivity of ras1Δ aca1Δ double mutant ([1]; compared to each single mutant, listed as AmpB): higher AmpB-sensitivity than each single mutant
- drug sensitivity of ras1Δ cac1Δ double mutant ([1]; ras1Δ cac1Δ, compared to each single mutant): even higher AmpB susceptibility than each single mutant
- drug sensitivity of ras1Δ mutant compared to WT ([1]; ras1Δ, H99 background): higher susceptibility
- drug sensitivity of ras2Δ mutant compared to WT ([1]; ras2Δ, H99 background): slightly more sensitive
- drug sensitivity of skn7Δ mutant compared to WT ([1]; H99 background): WT-levels of resistance
- drug sensitivity of ssk1Δ mutant compared to WT ([1]; H99 background): dramatic hypersensitivity
- drug sensitivity of ssk2Δ mutant compared to WT ([1]; H99 background): dramatic hypersensitivity
- drug sensitivity of tco2Δ mutant compared to WT ([1]; H99 background): hypersensitivity

Compound: CC(=O)N1CCN(c2ccc(OCC3COC(Cn4ccnc4)(c4ccc(Cl)cc4Cl)O3)cc2)CC1 (centres unmarked) [ketoconazole]
- drug sensitivity of hog1Δ cac1Δ double mutant ([1]; compared to single mutants): hypersensitivity; also recorded: hypersensitive
- drug sensitivity of hog1Δ mutant compared to WT ([1]; H99 background): hyper-resistance
- drug sensitivity of pbs2Δ mutant compared to WT ([1]; H99 background): hyper-resistance
- drug sensitivity of skn7Δ mutant compared to WT ([1]; H99 background): higher resistance
- drug sensitivity of ssk1Δ mutant compared to WT ([1]; H99 background): hyper-resistance
- drug sensitivity of ssk2Δ mutant compared to WT ([1]; H99 background): hyper-resistance
- drug sensitivity of tco2Δ mutant compared to WT ([1]; H99 background): higher resistance
